Data reported in patent US10851097B2, “4,5,6,7-tetrahydro-1H-imidazo[4,5-c]pyridine and 1,4,5,6,7,8-hexahydroimidazo[4,5-d]azepine derivatives as janus kinase inhibitors” (Topivert Pharma Limited, priority 2015, dated 2020).
≈ marks a conversion by molar mass, not a printed value. Where two headings read alike, the source gives them in different places.

Columns and labels:
[1] = system: CD3/IL2 stimulated PBMC cells; assay: IFNγ release from CD3/IL2 stimulated PBMC cells (assay (a)); format: cell-based; conditions: Homo sapiens, CD3/IL2 stimulation, 48 h, ELISA
Protocol: (a) IFNγ Release from CD3/IL2 Stimulated PBMC Cells
PBMCs from healthy subjects are separated from whole blood using a density gradient (Lymphoprep, Axis-Shield Healthcare). Cells are added to a 96 well plate, and compound at the desired concentration added 2 hours prior to stimulation with a mixture of monoclonal antibody to CD3 (1 μg/ml, eBioscience) and human recombinant IL2 (10 ng/ml, Peprotech). After 48 hours incubation under normal tissue culture conditions, supernatants are collected and IFNγ release determined by Sandwich ELISA (Duo-set, R&D System). The IC50 is determined from the dose response curve.

Jurkat cells = assay: Cell cytotoxicity assay in Jurkat cells (assay (c)); format: cell-based, human; conditions: 24 h, propidium iodide, normalised to DMSO control
Protocol: (c) Cell Cytotoxicity Assay
1×10^5 Jurkat cells (immortalised human T lymphocytes) are added to the appropriate number of wells of a 96 well plate in 100 μL of media (RPMI supplemented with 10% foetal bovine serum). 1 μL of DMSO control (final concentration 1.0% v/v) or test compound (final concentration 20, 5 or 1 μg/mL) is added to the wells and incubated at 37° C., 5% CO2. After 24 hours, the plate is centrifuged at 1200 rpm for 3 minutes and the supernatant discarded. Cells are then resuspended in 150 μL (final concentration 7.5 μg/mL) of propidium iodide (PI) in PBS and incubated at 37° C., 5% CO2 for 15 minutes. After 15 minutes, cells are analysed by flow cytometry (BD accuri) using the FL3 window. The % viability is calculated as the % of cells that are PI negative in the test wells normalised to the DMSO control.

[2] = Solubility in fasted-state simulated colonic fluid (FaSSCoF) at pH 6.5; format: physicochemical; conditions: 25 °C, pH 6.5, fassgf or other biorelevant, thermodynamic from solid, pH 6.5, 25° C.
Protocol: The solubilities of compounds of the invention in FaSSCoF at pH 6.5 are determined using a modification of a previously-reported procedure (Vertzoni, M., et al. Pharm. Res. 2010, 27, 2187-2196). In place of the bile salt extract employed in the original procedure (which extract is no longer available), the modified procedure uses a mixture of sodium taurochlorate (0.15 g), glycocholic acid (0.15 g), ursodeoxycholic acid (0.05 g), cholic acid (0.05 g), and glycodeoxycholic acid (0.05 g). These five bile acids are ground together with a mortar and pestle to produce a fine white powder that is incorporated into the FaSSCoF, as outlined below.
Tris(hydroxymethyl)aminomethane (Tris; 0.275 g) and maleic acid (0.44 g) are dissolved in water (35 mL) to give a solution whose pH is adjusted to 6.5 by treatment with 0.5M NaOH (ca. 12 mL). The solution is then made up to 50 mL with water. A portion of this Tris/maleate buffer solution (ca. 25 mL) is added to a 0.5 L round-bottomed flask, before being treated with 0.00565 g of the bile acid mixture described above. Solutions of phosphatidylcholine (0.0111 g) in DCM (0.15 mL) and palmitic acid (0.0013 g) in DCM (0.15 mL) are added, then the organic solvent is evaporated off under reduced pressure at 40° C. until a clear solution, with no perceptible DCM odour, is achieved. The volume of the evaporated solution is adjusted to 50 mL by addition of the remainder of Tris/maleate buffer, then BSA (0.115 g) is added, before being dissolved by gentle agitation.
Test compounds are suspended in the pH 6.5 FaSSCoF medium to give a maximum final concentration of 2-10 mg/mL. The suspensions are equilibrated at 25° C. for 24 h, before being filtered through a glass fibre C filter. The filtrates are then diluted as appropriate for injection and quantification by HPLC with reference to a standard. Different volumes of the standard, diluted and undiluted sample solutions are injected and the solubilities are calculated using the peak areas determined by integration of the peak found at the same retention time as the principal peak in the standard injection.

[3] = Run 1, read-out: pH 6.5 FaSSCoF Solubility Run 1
[4] = Run 2, read-out: pH 6.5 FaSSCoF Solubility Run 2

| solubility thermodynamic at 24 h [2, 3] | solubility thermodynamic at 24 h [2, 4] | SMILES | IC50 [1] | % viability at 1 μg/mL (Jurkat cells) |
| --- | --- | --- | --- | --- |
|  |  | CCc1cc(O)c(F)cc1-c1ccc2c(-c3nc4c([nH]3)CCN(C(=O)c3cnc(N5CCN(CCO)CC5)cn3)C4)n[nH]c2c1 [Example 2(l), (2-(6-(2-ethyl-5-fluoro-4-hydroxyphenyl)-1H-indazol-3-yl)-6,7-dihydro-1H-imidazo[4,5-c]pyridin-5(4H)-yl)(5-(4-(2-hydroxyethyl)piperazin-1-yl)pyrazin-2-yl)methanone] | 9.4 nM | 10% |
|  |  | CCc1cc(O)c(F)cc1-c1ccc2c(-c3nc4c([nH]3)CCN(C(=O)c3cnc(N5CC[S+]([O-])CC5)cn3)C4)n[nH]c2c1 [Example 2(e), (2-(6-(2-ethyl-5-fluoro-4-hydroxyphenyl)-1H-indazol-3-yl)-1,4,6,7-tetrahydro-5H-imidazo[4,5-c]pyridin-5-yl)(5-(1-oxildothiomorpholino)pyrazin-2-yl)methanone] | 57.6 nM | 96% |
| 10 µg/mL (≈ 16.4 µM) | 10 µg/mL (≈ 16.4 µM) | CCc1cc(O)c(F)cc1-c1ccc2c(-c3nc4c([nH]3)CCN(C(=O)c3cnc(N(C)C5CCN(C)CC5)cn3)C4)n[nH]c2c1 [Example 1, (2-(6-(2-Ethyl-5-fluoro-4-hydroxyphenyl)-1H-indazol-3-yl)-1,4,6,7-tetrahydro-5H-imidazo[4,5-c]pyridin-5-yl)(5-(methyl(1-methylpiperidin-4-yl)amino)pyrazin-2-yl)methanone] | 22.6 nM | 14% |
|  |  | CCc1cc(O)c(F)cc1-c1ccc2c(-c3nc4c([nH]3)CCN(C(=O)c3cnc(N(C)CCN(C)C(C)=O)cn3)C4)n[nH]c2c1 [Example 2(n), N-(2-((5-(2-(6-(2-ethyl-5-fluoro-4-hydroxyphenyl)-1H-indazol-3-yl)-4,5,6,7-tetrahydro-1H-imidazo[4,5-c]pyridine-5-carbonyl)pyrazin-2-yl)(methy)amino)ethyl)-N-methylacetamide] | 29.2 nM | 87% |
| 30 µg/mL (≈ 51.5 µM) | 40 µg/mL (≈ 68.7 µM) | CCc1cc(O)c(F)cc1-c1ccc2c(-c3nc4c([nH]3)CCN(C(=O)c3cnc(N5CCC[C@H]5CO)cn3)C4)n[nH]c2c1 [Example 2(h), (S)-(2-(6-(2-ethyl-5-fluoro-4-hydroxyphenyl)-1H-indazol-3-yl)-1,4,6,7-tetrahydro-5H-imidazo[4,5-c]pyridin-5-yl)(5-(2-(hydroxymethyl)pyrrolidin-1-yl)pyrazin-2-yl)methanone] | 12.1 nM | 56% |
|  |  | CCc1cc(O)c(F)cc1-c1ccc2c(-c3nc4c([nH]3)CCN(C(=O)c3cnc(N5CCN(CCn6ccnc6)CC5)cn3)C4)n[nH]c2c1 [Example 2(j), (5-(4-(2-(1H-imidazol-1-yl)ethyl)piperazin-1-yl)pyrazin-2-yl)(2-(6-(2-ethyl-5-fluoro-4-hydroxyphenyl)-1H-indazol-3-yl)-1,4,6,7-tetrahydro-5H-imidazo[4,5-c]pyridin-5-yl)methanone] | 5.3 nM | 12% |
|  |  | CCc1cc(O)c(F)cc1-c1ccc2c(-c3nc4c([nH]3)CCN(C(=O)c3cnc(N5CC(CO)C5)cn3)C4)n[nH]c2c1 [Example 2(o), (2-(6-(2-ethyl-5-fluoro-4-hydroxyphenyl)-1H-indazol-3-yl)-6,7-dihydro-1H-imidazo[4,5-c]pyridin-5(4H)-yl)(5-(3-(hydroxymethyl)azetidin-1-yl)pyrazin-2-yl)methanone] | 22.5 nM | 62% |
|  |  | CCc1cc(O)c(F)cc1-c1ccc2c(-c3nc4c([nH]3)CCN(C(=O)c3cnc(N(C)CCN5CCCS5(=O)=O)cn3)C4)n[nH]c2c1 [Example 2(v), (5-((2-(1,1-dioxidoisothiazolidin-2-yl)ethyl)(methyl)amino)pyrazin-2-yl)(2-(6-(2-ethyl-5-fluoro-4-hydroxyphenyl)-1H-indazol-3-yl)-6,7-dihydro-1H-imidazo[4,5-c]pyridin-5(4H)-yl)methanone] | 7.5 nM | 82% |
|  |  | CCc1cc(O)c(F)cc1-c1ccc2c(-c3nc4c([nH]3)CCN(C(=O)c3cnc(N5CCN(CCN(C)C)CC5)cn3)C4)n[nH]c2c1 [Example 2(f), (5-(4-(2-(dimethylamino)ethyl)piperazin-1-yl)pyrazin-2-yl)(2-(6-(2-ethyl-5-fluoro-4-hydroxyphenyl)-1H-indazol-3-yl)-1,4,6,7-tetrahydro-5H-imidazo[4,5-c]pyridin-5-yl)methanone] | 49.3 nM | 16% |
|  |  | CCc1cc(O)c(F)cc1-c1ccc2c(-c3nc4c([nH]3)CCN(C(=O)c3cnc(N(CCOC)CCOC)cn3)C4)n[nH]c2c1 [Example 2(i), (5-(bis(2-methoxyethyl)amino)pyrazin-2-yl)(2-(6-(2-ethyl-5-fluoro-4-hydroxyphenyl)-1H-indazol-3-yl)-1,4,6,7-tetrahydro-5H-imidazo[4,5-c]pyridin-5-yl)methanone] | 14.5 nM | 53% |
|  |  | CCc1cc(O)c(F)cc1-c1ccc2c(-c3nc4c([nH]3)CCN(C(=O)c3cnc(NCCS(C)(=O)=O)cn3)C4)n[nH]c2c1 [Example 2(q), (2-(6-(2-ethyl-5-fluoro-4-hydroxyphenyl)-1H-indazol-3-yl)-6,7-dihydro-1H-imidazo[4,5-c]pyridin-5(4H)-yl)(5-((2-(methylsulfonyl)ethyl)amino)pyrazin-2-yl)methanone] | 113 nM | 94% |
|  |  | CCc1cc(O)c(F)cc1-c1ccc2c(-c3nc4c([nH]3)CCN(C(=O)c3cnc(NCCN5CCC(O)CC5)cn3)C4)n[nH]c2c1 [Example 2(b), (2-(6-(2-ethyl-5-fluoro-4-hydroxyphenyl)-1H-indazol-3-yl)-1,4,6,7-tetrahydro-5H-imidazo[4,5-c]pyridin-5-yl)(5-((2-(4-hydroxypiperidin-1-yl)ethyl)amino)pyrazin-2-yl)methanone] | 87 nM |  |
|  |  | CCc1cc(O)c(F)cc1-c1ccc2c(-c3nc4c([nH]3)CCN(C(=O)c3cnc(NCCOCCOCCOC)cn3)C4)n[nH]c2c1 [Example 2(m), (2-(6-(2-ethyl-5-fluoro-4-hydroxyphenyl)-1H-indazol-3-yl)-6,7-dihydro-1H-imidazo[4,5-c]pyridin-5(4H)-yl)(5-((2-(2-(2-methoxyethoxy)ethoxy)ethyl)amino)pyrazin-2-yl)methanone] | 15.2 nM | 88% |
|  |  | CCc1cc(O)c(F)cc1-c1ccc2c(-c3nc4c([nH]3)CCN(C(=O)c3cnc(N5C[C@H]6CN(C)C[C@H]6C5)cn3)C4)n[nH]c2c1 [Example 2(t), (2-(6-(2-ethyl-5-fluoro-4-hydroxyphenyl)-1H-indazol-3-yl)-6,7-dihydro-1H-imidazo[4,5-c]pyridin-5(4H)-yl)(5-((3aR,6aS)-5-methylhexahydropyrrolo[3,4-c]pyrrol-2(1H)-yl)pyrazin-2-yl)methanone] | 15.2 nM | 18% |
